In one data set the target is T1, mKCNQ2 channels (Mus musculus, UniProt Q9Z351).
T1 construct: expressed in transfected cells
Nature of the data set: Whole-cell patch-clamp, HEK 293 stable cell line expressing mKCNQ2 channels. To be noted: HEK 293 mKCNQ2, Hill fit; for EC50: @ −40 mV; for Emax: HEK293, read-out: Imax (%). In kind it is cell-based. The procedure: Whole-cell patch-clamp recordings were made from an HEK 293 stable cell line expressing mKCNQ2 channels, maintained in culture for 1-2 days. Patch pipettes had initial resistances of 2.5-4 MΩ. Currents were recorded with an EPC-9 amplifier (HEKA, Lambrecht, Germany) controlled with software (Pulse, HEKA) run on a standard lab PC. Series resistance compensation was used during current recording, and set at 80%. The series resistance (R) and cell capacitance (C) were determined electronically by subtracting the capacitive currents at the onset and offset of a 5 mV voltage step. The cancellation of whole-cell capacitance transients was virtually complete in all cells. Analog current signals were low-pass filtered at 2.9 kHz using a four-pole Bessel filter −3 dB) and stored on a local network server computer at a sampling rate of […]. All recordings were performed at room temperature (20-22° C.). The pipette solution contained (mM): KCl, 150; CaCl2, 2.5; EGTA, 5; MgCl2, 1; HEPES, 10; pH to 7.3 with KOH, and Osmolality of 290-300 mOsm. The extracellular solution contained (mM): NaCl, 140; KCl, 2.5; CaCl2, 2.5; MgCl2, 1; glucose, 10; HEPES, 10; pH to 7.3 with NaOH, and Osmolality of 305-310 mOsm
Concentration response data were generated by measuring the difference in the steady-state amplitude of current in the presence of compound at the end of a 600 ms voltage-clamp step from a holding potential of −80 mV. The concentration-response data were fitted with Hill-type equations: […]
where I is the steady-state current at a given concentration of agonist [A]; and Imax, EC50 and nH are parameters estimated from the curve fit. In some cases the concentration-response data were fitted with equations consisting of the sum of two Hill-type components. Current-voltage (I/V) relationships for agonist-evoked currents were obtained by performing 600 ms voltage steps (−110 mV to +40 mV) in the absence and presence of agonist.
A general note: The patch-clamp technique gives a direct electrical read-out from membranes.

Structures are written as SMILES.

T1 sequence (Q9Z351 whole entry): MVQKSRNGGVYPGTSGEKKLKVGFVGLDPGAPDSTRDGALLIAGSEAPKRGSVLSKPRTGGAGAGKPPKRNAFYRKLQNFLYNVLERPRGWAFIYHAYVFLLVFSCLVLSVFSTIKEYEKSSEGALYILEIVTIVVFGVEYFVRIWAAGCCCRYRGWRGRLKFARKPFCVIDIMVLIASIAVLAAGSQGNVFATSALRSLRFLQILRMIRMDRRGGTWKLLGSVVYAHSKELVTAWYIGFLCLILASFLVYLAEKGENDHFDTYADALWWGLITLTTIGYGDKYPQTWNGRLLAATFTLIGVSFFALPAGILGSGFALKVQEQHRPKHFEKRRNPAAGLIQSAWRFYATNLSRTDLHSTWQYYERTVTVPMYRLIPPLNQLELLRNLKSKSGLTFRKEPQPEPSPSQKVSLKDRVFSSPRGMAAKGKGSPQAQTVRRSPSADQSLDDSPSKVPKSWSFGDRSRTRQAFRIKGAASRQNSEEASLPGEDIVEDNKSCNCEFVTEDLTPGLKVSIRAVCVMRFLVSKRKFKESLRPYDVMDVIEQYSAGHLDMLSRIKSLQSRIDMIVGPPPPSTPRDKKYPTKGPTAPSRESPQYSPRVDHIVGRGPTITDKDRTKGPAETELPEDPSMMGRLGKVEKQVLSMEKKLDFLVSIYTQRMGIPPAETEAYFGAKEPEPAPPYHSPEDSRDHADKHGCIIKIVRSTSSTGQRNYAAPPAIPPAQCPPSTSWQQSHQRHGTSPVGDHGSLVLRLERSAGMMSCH

On to `CC(NC(=O)/C=C/c1ccccc1F)c1ccc2c(c1)NCCC2` (racemic), for which the melting point – broadly, the temperature of the solid-liquid transition – fell in the range of 171 to 173 °C.
With `CC(NC(=O)/C=C/c1cc(F)ccc1F)c1ccc2c(c1)OCO2` (racemic) [Example 38, (±)-N-(1-Benzo[1,3]-diox-ol-5-yl-ethyl)-3-(2,5-di-fluoro-phenyl)-acrylamide], on mKCNQ2 channels, the response was half-maximal at 4.2 µM (EC50) and the Emax was 550%.
Taken in the same sequence, the figures for `CC(NC(=O)/C=C/c1ccccc1Cl)c1ccc2c(c1)OCO2` (racemic) [Example 46, (±)-N-(1-Benzo[1,3]-diox-ol-5-yl-ethyl)-3-(2-chlor-o-phenyl)-acrylamide] were 0.0006 µM and 260%.
Take `CC(NC(=O)/C=C/c1cccc(F)c1)c1ccc2c(c1)NCCC2` (racemic) [Example 232, (±)-3-(3-Fluoro-phenyl)-N-[1-(1,2,3,4-tetrahydro-quinolin-7-yl)ethyl]-acrylamide]: the melting point was 130 to 132 °C (dec.).
Turning to `CC(NC(=O)/C=C/c1ccccc1)c1ccc2c(c1)NCCC2` (racemic) [Example 233, (±)-3-phenyl-N-[1-(1,2,3,4-tetrahydro-quinolin-7-yl)ethyl]-acrylamide], the melting point was in the range of 144 to 146 °C.
Turning to `CC(NC(=O)/C=C/c1cc(F)ccc1F)c1ccc2c(c1)NCCC2` (racemic) [Example 234, (±)-3-(2,5-difluoro-phenyl)-N-[1-(1,2,3,4-tetrahydro-quinolin-7-yl)ethyl]-acrylamide], the melting point fell in the range of 139 to 141 °C.
Turning to `CC(NC(=O)/C=C/c1ccc(F)cc1)c1ccc2c(c1)NCCC2` (racemic) [Example 235, (±)-3-(4-fluoro-phenyl)-N-[1-(1,2,3,4-tetrahydro-quinolin-7-yl)ethyl]-acrylamide], the melting point is 125 to 127 °C (dec.).
Same read-out and setting: for `CC(NC(=O)/C=C/c1ccccc1F)c1ccc2c(c1)N(C)CCC2` (racemic) [Example 236, (±)-3-(2-fluoro-phenyl)-N-[1-(1-methyl-1,2,3,4-tetrahydro-quinolin-7-yl)ethyl]acrylamide] the value was 60 to 63 °C; for `CC(NC(=O)/C=C/c1cc(F)ccc1F)c1ccc2c(c1)N(C)CCC2` (racemic) [Example 237, (±)-3-(2,5-difluoro-phenyl)-N-[1-(1-methyl-1,2,3,4-tetrahydro-quinolin-7-yl)ethyl]acrylamide], 52 to 55 °C; for `CC(NC(=O)/C=C/c1ccccc1)c1ccc2c(c1)N(C)CCC2` (racemic) [Example 238, (±)-N-[1-(1-methyl-1,2,3,4-tetrahydro-quinolin-7-yl)-ethyl]-3-phenyl-acrylamide], 166 °C (dec.).
Same read-out and setting: as for `CC(NC(=O)/C=C/c1cccc(F)c1)c1ccc2c(c1)N(C)CCC2` (racemic) [Example 239, (±)-3-(3-fluoro-phenyl)-N-[1-(1-methyl-1,2,3,4-tetrahydro-quinolin-7-yl)ethyl]acrylamide], the figure is 60 to 63 °C; as for `CC(NC(=O)/C=C/c1ccc(F)cc1)c1ccc2c(c1)N(C)CCC2` (racemic) [Example 240, (±)-3-(4-fluoro-phenyl)-N-[1-(1-methyl-1,2,3,4-tetrahydro-quinolin-7-yl)ethyl]acrylamide], 183 to 185 °C; as for `CCN1CCCc2ccc(C(C)NC(=O)/C=C/c3ccccc3)cc21` (racemic) [Example 241, (±)-N-[1-(1-ethyl-1,2,3,4-tetrahydro-quinolin-7-yl)-ethyl]-3-phenyl-acrylamide], 50 to 52 °C.
In the case of `CCN1CCCc2ccc(C(C)NC(=O)/C=C/c3cc(F)ccc3F)cc21` (racemic) [Example 242, (±)-3-(2,5-difluoro-phenyl)-N-[1-(1-ethyl-1,2,3,4-tetrahydro-quinolin-7-yl)ethyl]acrylamide], the melting point is 50 to 53 °C. A half-maximal effect on mKCNQ2 channels (EC50) was put at 1.4 µM.
Compound `CC(=O)N1CCCc2ccc(C(C)NC(=O)/C=C/c3ccccc3)cc21` (racemic) [Example 243, (±)-N-[1-(1-acetyl-1,2,3,4-tetrahydro-quinolin-7-yl)-ethyl]-3-phenyl-acrylamide] yielded a melting point of 65 to 68 °C.
Take `CCN1CCOc2ccc(C(C)NC(=O)/C=C/c3ccccc3F)cc21` (single isomer, unassigned) [Example 214, 3-(2-fluoro-phenyl)-N-[1-(4-ethyl-3,4-dihydro-2H-benzo[1,4]oxazin-6-yl)ethyl]-acrylamide]: at mKCNQ2 channels, the EC50 (usually the concentration at which the effect is half-maximal) was 0.0009 µM and the Emax amounted to 260%.
In the case of `CC(NC(=O)/C=C/c1ccccc1F)c1ccc2c(c1)N(CC1CC1)CCO2` (single isomer, unassigned) [Example 215, 3-(2-fluoro-phenyl)-N-[1-(4-cyclopropylmethyl-3,4-dihydro-2H-benzo[1,4]oxazin-6-yl)ethyl]-acrylamide], the EC50 on mKCNQ2 channels amounted to 5.4 µM.
The compound `C[C@H](NC(=O)/C=C/c1ccc(Cl)cc1F)c1cccc(N2CCOCC2)c1` [Example 97, (S)-3-(4-Chloro-2-fluoro-phen-yl)-N-[1-(3-morpho-lin-4-yl-phenyl)-eth-yl]-acrylamide] returned an EC50 at mKCNQ2 channels of 2.9 µM.
As for `CC(NC(=O)/C=C/c1ccccc1)c1ccc2c(c1)CCCN2` (stereo not shown) [Example 249, 3-phenyl-N-[1-(1,2,3,4-tetrahydro-quinolin-6-yl)ethyl]acrylamide], the melting point was 64 to 67 °C.
Consider `CC(NC(=O)/C=C/c1ccc(F)c(F)c1)c1ccc2c(c1)CCCN2` (stereo not shown) [Example 250, 3-(3,4-difluoro-phenyl)-N-[1-(1,2,3,4-tetrahydro-quinolin-6-yl)-ethyl]acrylamide], for which the melting point was 156 °C (dec.).
As for `CC(NC(=O)/C=C/c1ccccc1F)c1ccc2c(c1)CCCN2` (stereo not shown) [Example 251, 3-(2-fluoro-phenyl)-N-[1-(1,2,3,4-tetrahydro-quinolin-6-yl)ethyl]acrylamide], the melting point is 149 to 151 °C (dec.).
`CC(NC(=O)/C=C/c1cc(F)ccc1F)c1ccc2c(c1)CCCN2` (stereo not shown) [Example 252, 3-(2,5-difluoro-phenyl)-N-[1-(1,2,3,4-tetrahydro-quinolin-6-yl)-ethyl]acrylamide] displayed a melting point of 55 to 58 °C.
In the case of `CC(NC(=O)/C=C/c1c(F)cccc1F)c1ccc2c(c1)CCCN2` (stereo not shown) [Example 253, 3-(2,6-difluoro-phenyl)-N-[1-(1,2,3,4-tetrahydro-quinolin-6-yl)ethyl]acrylamide], the melting point lay within 77 to 80 °C.
In turn, `CC(NC(=O)/C=C/c1cccc(F)c1)c1ccc2c(c1)CCCN2` (stereo not shown) [Example 254, 3-(3-fluoro-phenyl)-N-[1-(1,2,3,4-tetrahydro-quinolin-6-yl)ethyl]acrylamide] came in with a melting point of 172 to 174 °C.
On to `CC(NC(=O)/C=C/c1ccc(F)cc1)c1ccc2c(c1)CCCN2` (stereo not shown) [Example 255, 3-(4-fluoro-phenyl)-N-[1-(1,2,3,4-tetrahydro-quinolin-6-yl)ethyl]acrylamide], for which the melting point lay within 140 to 143 °C.
Still for that read-out and setting: as for `CC(NC(=O)/C=C/c1ccccc1)c1ccc2c(c1)CCCN2C` (stereo not shown) [Example 256, N-[1-(1-methyl-1,2,3,4-tetrahydro-quinolin-6-yl)-ethyl]-3-phenyl-acrylamide], the figure is 65 to 68 °C; as for `CC(NC(=O)/C=C/c1cc(F)ccc1F)c1ccc2c(c1)CCCN2C` (stereo not shown) [Example 257, 3-(2,5-difluoro-phenyl)-N-[1-(1-methyl-1,2,3,4-tetrahydro-quinolin-6-yl)ethyl]acrylamide], 51 to 55 °C.

The values above are taken from US6831080B2, “Cinnamide derivatives as KCNQ potassium channel modulators” (Bristol-Myers Squibb Company, priority 2001, dated 2004).
